Patent US9044397B2, “Medical devices with galvanic particulates” (Ethicon, Inc., priority 2009, dated 2015)

What was measured:
Assay type in all cases: cell-based
C. albicans [1] = assay: Zone of inhibition on TSA agar versus copper acetate and zinc acetate; conditions: about 6 log CFU, 37° C. 24 hr
Procedure: (§1) Zone of inhibition testing was performed on agar discs containing copper-zinc galvanic particulates from Example 1(a) at 0.5%, Zn acetate at 0.5%, and Cu acetate at 0.1%. The discs were placed on TSA agar surface, inoculated with about 6 log CFU of MRSA or C. albicans, and incubated at 37° C. for 24 hr.

MRSA [2] = assay: as above; conditions: about 6 log CFU, 37° C. 24 hr
Procedure: as §1

C. albicans [3] = assay: Sustained efficacy, zone of inhibition day 1 and re-plated day 2; conditions: 1% in agar disc
Procedure: (§2) Agars discs containing either galvanic particulates as described in Example 1(a) or zinc acetate at 1% were placed on TSA agar surface inoculated with about 6 log CFU of MRSA or C. albicans and incubated at 37° C. for 24 hr (day-1).

MRSA [4] = assay: as above; conditions: 1% in agar disc
Procedure: as §2

[5] = same disc moved to newly inoculated plate, day-2

Row | Compound | zone of inhibition, C. albicans (C. albicans [1]; 0.1% in agar disc) | zone of inhibition, MRSA (MRSA [2]; 0.1% in agar disc) | zone of inhibition, C. albicans, day 1 (C. albicans [3]; day-1, 24 hr at 37° C.) | zone of inhibition, C. albicans, day 2 (C. albicans [3]; [5]) | zone of inhibition, MRSA, day 1 (MRSA [4]; day-1, 24 hr at 37° C.) | zone of inhibition, MRSA, day 2 (MRSA [4]; [5]) | zone of inhibition, C. albicans (C. albicans [1]; 0.5% in agar disc) | zone of inhibition, MRSA (MRSA [2]; 0.5% in agar disc)
1 | copper acetate | did not show any visible zone of inhibition | did not show any visible zone of inhibition |  |  |  |  |  | 
2 | CC(=O)[O-].CC(=O)[O-].[Zn+2] [Zinc Acetate, zinc acetate] |  |  | produce a zone of inhibition | did not show any inhibition | produce a zone of inhibition | did not show any inhibition | smaller zone of inhibition, approximately one half the radius | smaller zone of inhibition, approximately one half the radius
